Test results taken from patent publication US20100063085A1, “METHOD OF TREATING LEARNING IMPAIRMENT IN DOWN'S SYNDROME SUBJECTS” (University Court of The University of Dundee, priority 2008, published 2010).
Like-named read-outs stand apart in the source and are kept apart here.

How the values were obtained:
[1] = target: T1, NEK2a (Homo sapiens, UniProt P51955); assay: NEK2a 33P kinase assay; assay type: biochemical; details: read-out: NEK2a activity as percentage of control without inhibitor
T1 sequence (P51955 1-445): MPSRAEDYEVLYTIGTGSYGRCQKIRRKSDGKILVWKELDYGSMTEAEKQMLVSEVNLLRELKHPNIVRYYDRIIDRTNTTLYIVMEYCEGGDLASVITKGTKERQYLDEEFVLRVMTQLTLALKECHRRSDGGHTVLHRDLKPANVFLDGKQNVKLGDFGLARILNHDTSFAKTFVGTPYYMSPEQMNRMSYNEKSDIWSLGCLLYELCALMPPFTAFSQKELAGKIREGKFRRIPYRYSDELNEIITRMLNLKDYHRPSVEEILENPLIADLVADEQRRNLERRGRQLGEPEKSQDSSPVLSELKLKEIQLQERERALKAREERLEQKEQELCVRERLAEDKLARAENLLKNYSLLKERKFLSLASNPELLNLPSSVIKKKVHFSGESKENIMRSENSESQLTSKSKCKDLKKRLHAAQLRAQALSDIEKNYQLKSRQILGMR
Protocol: (§1) All assays (25.5 μl) were carried out at room temperature (21° C.) and were linear with respect to time and enzyme concentrations under the conditions used. Assays were performed for 30 minutes except assays for LCK and PKB which were performed for 15 minutes using Multidrop Micro reagent dispensers (Thermo Electron Corporation, Waltham, Mass. 02454, USA) in a 96-well format. The concentration of […] [γ-^33P] ATP (800 cpm/pmol) in the assays was one of three concentrations (5, 20 or 50 μM) in order to be at or below Km for ATP for the enzyme. Assays were initiated with MgATP and stopped by addition of 5 μl of 0.5M orthophosphoric acid. Assays were then harvested onto P81 filterplates using a unifilter harvester (PerkinElmer, Boston, Mass. 02118, USA), with a wash buffer of 50 mM orthophosphoric acid. Filterplates were then air dried overnight. 10 μl of Microscint O was added per well prior to counting for radioactivity.
5-20 mU of NEK2a (diluted in 50 mM Tris (pH 7.5), 0.1 mM EGTA, 1 mg/ml BSA, 0.1%, β-Mercaptoethanol) is assayed against NEK2a peptide ([…]) in a final volume of 25.5 μl containing 50 mM Tris (pH 7.5), 0.1 mM EGTA, 0.01% Brij, 0.1%, β-Mercaptoethanol, 300 μM NEK2a peptide, 10 mM magnesium acetate and 0.05 mM [^33P- γATP](500-1000 cpm/pmole) and incubated for 30 mins at room temperature.

[2] = target: T2, PKD1 (Homo sapiens, UniProt Q15139); assay: PKD1 33P kinase assay; assay type: biochemical; details: read-out: PKD1 activity as percentage of control without inhibitor
T2 sequence (Q15139 1-912): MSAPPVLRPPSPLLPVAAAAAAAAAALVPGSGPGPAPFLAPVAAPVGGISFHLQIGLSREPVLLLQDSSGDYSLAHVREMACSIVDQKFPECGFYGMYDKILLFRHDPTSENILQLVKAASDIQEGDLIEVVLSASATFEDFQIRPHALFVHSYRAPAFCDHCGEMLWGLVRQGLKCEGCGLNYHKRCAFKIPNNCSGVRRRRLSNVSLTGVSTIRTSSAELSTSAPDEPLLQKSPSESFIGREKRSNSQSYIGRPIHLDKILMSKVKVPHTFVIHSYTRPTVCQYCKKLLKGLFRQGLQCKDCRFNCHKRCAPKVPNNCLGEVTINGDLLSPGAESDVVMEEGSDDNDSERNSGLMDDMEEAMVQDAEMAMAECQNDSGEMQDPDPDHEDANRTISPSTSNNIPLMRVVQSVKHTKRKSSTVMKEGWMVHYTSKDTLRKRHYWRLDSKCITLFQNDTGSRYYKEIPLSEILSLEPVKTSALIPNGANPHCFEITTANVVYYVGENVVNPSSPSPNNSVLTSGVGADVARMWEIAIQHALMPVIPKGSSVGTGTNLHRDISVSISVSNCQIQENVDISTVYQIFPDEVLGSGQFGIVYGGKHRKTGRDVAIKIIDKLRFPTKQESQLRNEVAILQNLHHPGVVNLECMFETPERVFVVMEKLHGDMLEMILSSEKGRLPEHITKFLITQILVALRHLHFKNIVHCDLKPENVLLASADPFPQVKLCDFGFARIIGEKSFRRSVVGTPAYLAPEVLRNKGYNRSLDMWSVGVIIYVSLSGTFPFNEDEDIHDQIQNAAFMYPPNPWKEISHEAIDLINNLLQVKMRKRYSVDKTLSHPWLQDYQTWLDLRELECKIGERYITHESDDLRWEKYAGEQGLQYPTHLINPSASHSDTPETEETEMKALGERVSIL
Protocol: as §1
The following kinases were assayed against the substrates indicated. Aurora B was assayed against the substrate peptide […] (300 μM), ERK8 and MST-2 were both assayed against MBP (0.33 mg/ml). IKKβ was assayed against the substrate peptide […] (300 μM), JNK3 was assayed against 3 μM ATF2[19-96]. MAPKAP-K3 and PKD1 were both assayed against […] (30 μM), MARK3 was assayed against CHKtide ([…]) substrate peptide (300 μM). MNK1 and MNK2 were both assayed against eIF4E protein (0.5 mg/ml). NEK7 was assayed against […] (300 μM), PIM2 was assayed against […] (300 μM), ΔPH PKBβ-S474D was assayed against Crosstide (30 μM), PLK1 was assayed against […] (300 μM). PRK2 was assayed against Long S6 peptide, […] (30 μM), RSK2 was assayed against […] (30 μM), SRC was assayed against cdc2 peptide, […], (300 μM) and SRPK1 was assayed against peptide […] (300 μM). All enzymes were diluted in 50 mM Tris/HCl pH 7.5, 0.1 mM EGTA, 1 mg/ml BSA, 0.1% β-mercaptoethanol buffer and assayed in an incubation containing 50 mM Tris/HCl pH7.5, 0.1 mM EGTA, 0.1% β-mercaptoethanol, CAMK-1 (5-20 mU) diluted in 50 mM Tris/HCl pH 7.5, 0.1 mM EGTA, 1 mg/ml BSA, 0.1% β-mercaptoethanol is assayed against substrate peptide […] in an incubation containing 50 mM Tris/HCl pH 7.5, 0.1 mM EGTA, 0.5 mM CaCl2, 0.3 μM calmodulin, 0.1% β-mereaptoethanol, 300 μM substrate peptide, 10 mM magnesium acetate and 0.05 mM [^33P-γ-ATP] (500-1000 cpm/pmole). EF2K (5-20 mU) diluted in 50 mM Hepes pH 6.6, 0.1% β-mercaptoethanol, 1 mg/ml BSA is assayed against a substrate peptide […] in an incubation containing 50 mM Hepes pH 6.6, 0.2 mM CaCl2, 0.3 μM Calmodulin, 0.05% b-mercaptoethanol, 300 μM substrate peptide, 10 mM magnesium acetate and 0.05 mM [^33P-γ-ATP] (500-1000 cpm/pmole).

Question: What does the source list for `COc1ccc2c3c([nH]c2c1)C(C)=NCC3` [Harmaline]?
Answer: remaining activity at 1 µM ([1]; inhibitor 1 μM): 69%; remaining activity at 10 µM ([1]; inhibitor 10 μM): 109%; remaining activity at 1 µM ([2]; inhibitor 1 μM): 99%; remaining activity at 10 µM ([2]; inhibitor 10 μM): 101%

Question: Which remaining activity at 1 µM ([1]; inhibitor 1 μM) does the source give for `CC1=NCCc2c1[nH]c1cc(O)ccc21` [Harmalol] here?
Answer: The remaining activity at 1 µM was 104%.

Question: And the remaining activity at 10 µM ([1]; inhibitor 10 μM)?
Answer: Its remaining activity at 10 µM is 83%.

Question: And the remaining activity at 1 µM ([2]; inhibitor 1 μM)?
Answer: Its remaining activity at 1 µM is 75%.

Question: And the remaining activity at 10 µM ([2]; inhibitor 10 μM)?
Answer: Its remaining activity at 10 µM is 21%.

Question: Which remaining activity at 1 µM [1] does the source give for `COc1ccc2c(c1)[nH]c1c(C)nccc12` [Harmine] here?
Answer: The remaining activity at 1 µM was 106%.

Question: And the remaining activity at 10 µM [1]?
Answer: The remaining activity at 10 µM was 111%.

Question: What about the remaining activity at 1 µM [2] of the same compound?
Answer: The remaining activity at 1 µM was 86%.

Question: And the remaining activity at 10 µM [2]?
Answer: Its remaining activity at 10 µM is 53%.
